According to patent US20110150767A1, “ALPHA-SUBSTITUTED AND ALPHA-UNSUBSTITUTED AROMATIC AMINO ACID DERIVATIVES AND COMPOSITIONS THEREOF FOR USE TO TREAT, DIAGNOSE, OR MONITOR A MEDICAL CONDITION” (priority 2009, published 2011):

What was measured:
[1] = biological target: T1, human L-type amino acid transporter 1 (LAT1; S2-hLAT1 cells) (Homo sapiens, UniProt Q01650); assay: Inhibition of L-[14C]leucine uptake in S2-LAT1 cells; type: cell-based; conditions: inhibition of 1.0 μM L-[14C]leucine uptake, 1.0 min, 37° C., NI = no inhibition at 100 μM
T1 construct: expressed in transfected cells; host or cells: S2 cells (S2-hLAT1 / S2-LAT1); mammalian cell line described in Morimoto et al., J Pharmacol Sci 2008, 108, 505-516
T1 sequence (Q01650 whole entry, one chain of several): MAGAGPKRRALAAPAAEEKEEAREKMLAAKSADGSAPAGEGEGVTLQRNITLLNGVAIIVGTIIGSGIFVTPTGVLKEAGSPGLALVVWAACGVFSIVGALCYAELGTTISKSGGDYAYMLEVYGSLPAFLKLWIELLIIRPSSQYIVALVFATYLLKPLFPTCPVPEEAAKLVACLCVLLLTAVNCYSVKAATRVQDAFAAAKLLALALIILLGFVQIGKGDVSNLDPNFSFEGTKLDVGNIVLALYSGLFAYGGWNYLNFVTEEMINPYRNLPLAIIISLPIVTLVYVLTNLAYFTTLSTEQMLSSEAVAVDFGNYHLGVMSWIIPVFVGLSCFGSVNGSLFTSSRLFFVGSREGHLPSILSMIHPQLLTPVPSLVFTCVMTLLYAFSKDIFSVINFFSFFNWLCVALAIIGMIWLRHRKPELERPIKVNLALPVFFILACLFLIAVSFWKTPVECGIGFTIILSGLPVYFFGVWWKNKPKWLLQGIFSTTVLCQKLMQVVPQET
Procedure: (§1) The establishment and characterization of mammalian cell lines expressing human L-type amino acid transporterss (i.e. S2-hLAT1 and S2-hLAT2) has been previously described (Morimoto et al., Journal of Pharmacological Sciences, 2008, 108, 505-516).
(§2) General test procedures are as follows: All test compounds were dissolved in dimethyl sulfoxide (DMSO) to prepare stock solutions at the concentrations of 0.05, 0.5, 5.0 and 50 mM; next, these stock solutions were used and diluted with uptake solution to make final test concentrations of 0.10, 1.00, 10.0 and 100 μM, respectively. Therefore, all compounds used for uptake experiment were in uptake solution containing 0.2% DMSO; experiments are performed in triplicate for each concentration. For control uptake, only DMSO was added into the uptake solution to a final concentration of 0.2%.
(§3) S2-LAT1 and S2-LAT2 cells were seeded (1.3×10^5 cells/well) into 24-well plates and cultured at 33° C. (5% CO2) for 2-3 days until confluent (90%-100% confluence). Uptake experiments were performed at 37° C. The culture medium was removed and washed 3 times with uptake solution (37° C.; Hank's Na^+ free buffer consisting of 125 mM choline chloride, 4.8 mM KCl, 1.3 mM CaCl2, 1.2 mM MgCl2, 25.0 mM HEPES, and 5.0 mM Tris, pH 7.4, supplemented with D-glucose (5.6 mM). The cells were equilibrated in uptake solution (300 μL; 37° C.) for 12 min. The equilibrated solution was removed and uptake solution containing radio-labeled compound (1.0 μM L-[^14C] Leucine) with or without test compound (300 μL) was added to the cells (1.0 min). The test solution was removed and the cells washed 3 times with ice-cold uptake solution. The cells are then solubilized with 0.1N NaOH (0.5 mL) and transferred to scintillation vials. Liquid scintillation fluid (3.0 mL; aquasol-2) was added, mixed and substrate accumulation was measured by counting radioactivity via liquid scintillation counting (LSC; LSC6100, Aloka, Tokyo). The uptake value and % of inhibition were calculated to afford IC50 values.

[2] = biological target: T2, human L-type amino acid transporter 2 (LAT2; S2-hLAT2 cells) (Homo sapiens, UniProt Q9UHI5); assay: Inhibition of L-[14C]leucine uptake in S2-LAT2 cells; type: cell-based; conditions: inhibition of 1.0 μM L-[14C]leucine uptake, 1.0 min, 37° C., NI = no inhibition at 100 μM
T2 construct: expressed in transfected cells; host or cells: S2 cells (S2-hLAT2 / S2-LAT2); mammalian cell line described in Morimoto et al., J Pharmacol Sci 2008, 108, 505-516
T2 sequence (Q9UHI5 1-535): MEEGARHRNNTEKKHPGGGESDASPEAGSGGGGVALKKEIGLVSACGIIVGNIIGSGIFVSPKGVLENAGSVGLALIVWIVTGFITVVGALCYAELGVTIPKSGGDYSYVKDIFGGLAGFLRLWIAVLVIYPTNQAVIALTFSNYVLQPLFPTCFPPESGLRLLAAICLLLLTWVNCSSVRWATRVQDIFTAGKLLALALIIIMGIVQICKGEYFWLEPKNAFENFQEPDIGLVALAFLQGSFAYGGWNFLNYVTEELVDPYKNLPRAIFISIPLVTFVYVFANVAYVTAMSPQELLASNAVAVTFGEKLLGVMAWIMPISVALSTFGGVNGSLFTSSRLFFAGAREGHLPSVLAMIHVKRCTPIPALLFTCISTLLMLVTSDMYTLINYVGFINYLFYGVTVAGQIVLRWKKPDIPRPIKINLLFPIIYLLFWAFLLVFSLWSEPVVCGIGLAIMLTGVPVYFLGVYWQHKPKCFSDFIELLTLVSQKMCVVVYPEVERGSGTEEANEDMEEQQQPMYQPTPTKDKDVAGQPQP
T2 sequence (P08195 1-529 partner): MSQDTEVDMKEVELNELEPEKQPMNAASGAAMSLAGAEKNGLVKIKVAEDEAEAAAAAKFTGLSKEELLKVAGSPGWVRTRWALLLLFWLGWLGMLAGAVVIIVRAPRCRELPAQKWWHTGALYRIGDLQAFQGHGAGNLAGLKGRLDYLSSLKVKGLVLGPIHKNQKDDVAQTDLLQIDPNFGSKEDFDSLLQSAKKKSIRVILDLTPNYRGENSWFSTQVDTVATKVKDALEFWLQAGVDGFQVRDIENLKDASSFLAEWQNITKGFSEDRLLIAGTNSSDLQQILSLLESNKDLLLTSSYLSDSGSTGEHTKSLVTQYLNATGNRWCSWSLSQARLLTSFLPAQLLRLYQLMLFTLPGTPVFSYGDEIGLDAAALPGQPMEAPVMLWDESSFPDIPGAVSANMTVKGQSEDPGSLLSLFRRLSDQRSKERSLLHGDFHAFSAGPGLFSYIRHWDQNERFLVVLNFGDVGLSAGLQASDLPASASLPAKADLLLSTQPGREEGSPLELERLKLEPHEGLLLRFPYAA
Procedure: as §1, §2, §3

IC50 [1]: 2.9 µM
IC50 [2]: 44.9 µM
SMILES: CCOc1ccc(COc2c(Cl)cc(C[C@H](N)C(=O)O)cc2Cl)cc1OCC [compound 141]
